# Assay results as given in paper PMC3920478, “Small molecule-mediated refolding and activation of myosin motor function” (eLife, 2014).
# Legend:
# Dd myosin-5 motor domain = molecular target: T1, Dd myosin-5 motor domain (Dictyostelium discoideum, UniProt P54697); test: Direct binding to motor domain construct
# T1 sequence (P54697 1-821 limits assumed): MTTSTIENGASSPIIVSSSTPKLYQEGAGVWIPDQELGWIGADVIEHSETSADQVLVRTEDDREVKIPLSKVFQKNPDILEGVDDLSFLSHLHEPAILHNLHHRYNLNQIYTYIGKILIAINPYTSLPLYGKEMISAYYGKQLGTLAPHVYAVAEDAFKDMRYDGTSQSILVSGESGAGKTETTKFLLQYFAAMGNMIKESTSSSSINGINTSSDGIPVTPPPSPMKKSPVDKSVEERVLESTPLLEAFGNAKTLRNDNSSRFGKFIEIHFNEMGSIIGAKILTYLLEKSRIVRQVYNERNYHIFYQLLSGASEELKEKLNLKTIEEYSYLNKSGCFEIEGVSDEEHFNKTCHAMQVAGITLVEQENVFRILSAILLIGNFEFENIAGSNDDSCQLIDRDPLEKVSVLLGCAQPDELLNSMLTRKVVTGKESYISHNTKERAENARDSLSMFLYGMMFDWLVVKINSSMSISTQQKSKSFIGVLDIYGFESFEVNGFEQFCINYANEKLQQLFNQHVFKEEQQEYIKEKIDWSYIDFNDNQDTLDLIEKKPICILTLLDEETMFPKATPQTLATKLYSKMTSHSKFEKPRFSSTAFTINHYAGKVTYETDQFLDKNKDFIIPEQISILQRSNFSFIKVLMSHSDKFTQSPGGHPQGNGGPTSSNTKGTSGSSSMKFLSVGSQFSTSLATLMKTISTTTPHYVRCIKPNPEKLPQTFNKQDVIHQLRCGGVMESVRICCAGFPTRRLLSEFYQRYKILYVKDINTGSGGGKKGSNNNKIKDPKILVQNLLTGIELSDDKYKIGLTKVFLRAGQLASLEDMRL
# Description: (§1) Proteolytic fragments were further purified by actin-coprecipitation.
# Dd myosin-2 motor domain = molecular target: T2, Dd myosin-2 motor domain (Dictyostelium discoideum, UniProt P08799); test: Microscale thermophoresis direct binding; details: 100 nM, read-out: Binding affinity (MST), KD
# T2 sequence (P08799 1-761 limits assumed): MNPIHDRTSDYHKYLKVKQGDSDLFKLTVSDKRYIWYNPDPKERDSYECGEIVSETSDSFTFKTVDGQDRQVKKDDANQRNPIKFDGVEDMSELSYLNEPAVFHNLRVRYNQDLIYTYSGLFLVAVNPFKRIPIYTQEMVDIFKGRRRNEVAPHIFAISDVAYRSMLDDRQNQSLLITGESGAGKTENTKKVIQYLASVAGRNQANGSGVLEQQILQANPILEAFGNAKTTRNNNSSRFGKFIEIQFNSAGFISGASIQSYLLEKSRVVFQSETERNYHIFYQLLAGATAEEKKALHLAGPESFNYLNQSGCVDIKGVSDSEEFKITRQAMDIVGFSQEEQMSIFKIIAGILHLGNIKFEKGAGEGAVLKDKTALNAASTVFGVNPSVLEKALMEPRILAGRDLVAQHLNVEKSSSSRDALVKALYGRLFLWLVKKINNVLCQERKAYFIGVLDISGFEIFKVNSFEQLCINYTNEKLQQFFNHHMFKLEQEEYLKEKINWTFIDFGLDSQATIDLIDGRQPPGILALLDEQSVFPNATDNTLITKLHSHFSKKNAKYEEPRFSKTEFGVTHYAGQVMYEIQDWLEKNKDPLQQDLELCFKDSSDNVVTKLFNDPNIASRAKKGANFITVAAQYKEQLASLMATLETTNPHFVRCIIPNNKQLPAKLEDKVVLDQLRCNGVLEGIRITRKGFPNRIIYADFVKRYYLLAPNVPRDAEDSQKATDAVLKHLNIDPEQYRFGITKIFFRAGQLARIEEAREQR
# Description: as §1
# β-cardiac myosin = β-cardiac myosin (Sus scrofa, UniProt P79293); test: Frictional loading experiments with α-actinin (force production); assay type: biochemical, Porcine; parameters: β-Cardiac myosin-2 (S1, full-length); from tissue; host or cells: porcine cardiac muscle
# Description: In addition, the fraction of moving filaments increased from <75% to >95%. […] In initial experiments, we determined the minimal concentration of α-actinin molecules that generate sufficient load to stall the movement of actin filaments for a given surface density of myosin heads. […] Next, we generated in vitro motility flow cells with actin filaments held at stall force. […] The time-dependence of the recovery of motile activity is best fit by a hyperbola. A plateau value of 0.4 μm s^−1 is reached after more than 2 hr (Figure 1G).
# [1] = molecular target: T3, β-cardiac myosin motor domain (Sus scrofa, UniProt P79293); test: Melting temperature by circular dichroism at 222 nm; parameters: species or system Porcine; details: nucleotide-free, low salt, 100 µM (saturating) EMD 57033
# T3 construct: Melting curves of the β-cardiac myosin motor domain as determined by circular dichroism spectroscopy at 222 nm; from tissue; host or cells: porcine cardiac muscle
# Experimental: Circular dichroism and differential static light scattering experiments were performed to determine Tm.
# Protein solutions were diluted to a concentration of 0.3 mg/ml in a buffer containing 5 mM KPi pH 7.5, 15 mM KCl. Denaturation of β-cardiac myosin was measured by monitoring the temperature-dependent changes of ellipticity at 222 nm in a temperature controlled π*-180 Spectrometer equipped with a circular dichroism unit (Applied Photophysics, Leatherhead, UK). Measurements were performed in a 0.3-cm path length Quartz cuvette with a temperature gradient of 1°C min^−1. The transition midpoint of the unfolding reaction was calculated by fitting a Boltzmann function to the experimental data. Prior to measurements, the storage buffer of β-cardiac myosin that contains DTT and sucrose were exchanged using PD MiniTrap G-25 (GE Healthcare, Little Chalfont, UK) size exclusion columns equilibrated with CD Buffer (5 mM KPi pH 7.5, 15 mM KCl).
# [2] = 25 μM EMD 57033, 8 µg/ml α-actinin
# β-cardiac myosin, sequence (P79293 whole entry): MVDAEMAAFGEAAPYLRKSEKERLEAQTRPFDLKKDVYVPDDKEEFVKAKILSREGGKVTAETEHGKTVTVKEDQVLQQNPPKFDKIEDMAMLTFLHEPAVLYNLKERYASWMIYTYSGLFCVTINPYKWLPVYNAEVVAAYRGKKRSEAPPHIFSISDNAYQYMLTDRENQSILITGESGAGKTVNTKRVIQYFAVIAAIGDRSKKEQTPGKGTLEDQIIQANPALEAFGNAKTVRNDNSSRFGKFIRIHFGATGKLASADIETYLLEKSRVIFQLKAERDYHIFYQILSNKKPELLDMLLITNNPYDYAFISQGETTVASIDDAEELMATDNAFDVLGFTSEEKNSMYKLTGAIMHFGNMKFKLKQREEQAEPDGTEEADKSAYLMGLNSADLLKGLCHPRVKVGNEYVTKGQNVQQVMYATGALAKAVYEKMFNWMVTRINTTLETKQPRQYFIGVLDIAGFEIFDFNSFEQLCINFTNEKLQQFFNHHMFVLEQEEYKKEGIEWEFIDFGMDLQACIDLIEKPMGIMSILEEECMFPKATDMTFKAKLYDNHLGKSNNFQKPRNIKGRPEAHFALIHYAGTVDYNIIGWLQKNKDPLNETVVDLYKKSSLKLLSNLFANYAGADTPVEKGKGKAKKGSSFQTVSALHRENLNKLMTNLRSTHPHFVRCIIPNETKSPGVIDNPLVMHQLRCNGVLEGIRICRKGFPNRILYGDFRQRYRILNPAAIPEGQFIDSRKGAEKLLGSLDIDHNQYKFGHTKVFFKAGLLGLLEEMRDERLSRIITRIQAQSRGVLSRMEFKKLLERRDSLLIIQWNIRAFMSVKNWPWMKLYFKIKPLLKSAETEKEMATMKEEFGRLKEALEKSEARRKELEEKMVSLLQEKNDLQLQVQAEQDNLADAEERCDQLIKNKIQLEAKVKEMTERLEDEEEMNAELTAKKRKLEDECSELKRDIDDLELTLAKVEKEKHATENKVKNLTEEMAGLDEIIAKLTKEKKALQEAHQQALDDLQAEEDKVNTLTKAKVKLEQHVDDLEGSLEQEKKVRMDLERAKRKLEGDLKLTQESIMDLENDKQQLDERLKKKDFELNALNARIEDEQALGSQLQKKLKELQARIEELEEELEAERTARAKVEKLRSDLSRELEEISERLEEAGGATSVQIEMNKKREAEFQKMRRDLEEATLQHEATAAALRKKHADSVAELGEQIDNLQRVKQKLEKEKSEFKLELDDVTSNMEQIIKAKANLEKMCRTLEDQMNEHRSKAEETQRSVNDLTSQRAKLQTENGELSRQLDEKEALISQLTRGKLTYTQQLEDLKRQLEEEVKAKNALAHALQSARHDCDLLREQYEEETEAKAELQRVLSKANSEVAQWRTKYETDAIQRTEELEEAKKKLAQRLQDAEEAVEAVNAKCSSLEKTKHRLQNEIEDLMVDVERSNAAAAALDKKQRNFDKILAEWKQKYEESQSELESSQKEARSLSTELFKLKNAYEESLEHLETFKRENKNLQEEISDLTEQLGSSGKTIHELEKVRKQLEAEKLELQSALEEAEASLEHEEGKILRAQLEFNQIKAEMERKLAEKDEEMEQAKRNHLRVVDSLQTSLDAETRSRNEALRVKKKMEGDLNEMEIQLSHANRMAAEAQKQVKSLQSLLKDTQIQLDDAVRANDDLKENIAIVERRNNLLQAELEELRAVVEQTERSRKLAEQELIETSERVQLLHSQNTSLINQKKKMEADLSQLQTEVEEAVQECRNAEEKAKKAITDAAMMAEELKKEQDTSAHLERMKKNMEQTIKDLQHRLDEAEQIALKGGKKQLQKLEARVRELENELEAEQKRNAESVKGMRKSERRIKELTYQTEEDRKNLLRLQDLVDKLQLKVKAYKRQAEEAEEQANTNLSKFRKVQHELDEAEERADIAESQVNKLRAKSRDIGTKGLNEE
# T3 sequence (P79293 1-843 limits assumed): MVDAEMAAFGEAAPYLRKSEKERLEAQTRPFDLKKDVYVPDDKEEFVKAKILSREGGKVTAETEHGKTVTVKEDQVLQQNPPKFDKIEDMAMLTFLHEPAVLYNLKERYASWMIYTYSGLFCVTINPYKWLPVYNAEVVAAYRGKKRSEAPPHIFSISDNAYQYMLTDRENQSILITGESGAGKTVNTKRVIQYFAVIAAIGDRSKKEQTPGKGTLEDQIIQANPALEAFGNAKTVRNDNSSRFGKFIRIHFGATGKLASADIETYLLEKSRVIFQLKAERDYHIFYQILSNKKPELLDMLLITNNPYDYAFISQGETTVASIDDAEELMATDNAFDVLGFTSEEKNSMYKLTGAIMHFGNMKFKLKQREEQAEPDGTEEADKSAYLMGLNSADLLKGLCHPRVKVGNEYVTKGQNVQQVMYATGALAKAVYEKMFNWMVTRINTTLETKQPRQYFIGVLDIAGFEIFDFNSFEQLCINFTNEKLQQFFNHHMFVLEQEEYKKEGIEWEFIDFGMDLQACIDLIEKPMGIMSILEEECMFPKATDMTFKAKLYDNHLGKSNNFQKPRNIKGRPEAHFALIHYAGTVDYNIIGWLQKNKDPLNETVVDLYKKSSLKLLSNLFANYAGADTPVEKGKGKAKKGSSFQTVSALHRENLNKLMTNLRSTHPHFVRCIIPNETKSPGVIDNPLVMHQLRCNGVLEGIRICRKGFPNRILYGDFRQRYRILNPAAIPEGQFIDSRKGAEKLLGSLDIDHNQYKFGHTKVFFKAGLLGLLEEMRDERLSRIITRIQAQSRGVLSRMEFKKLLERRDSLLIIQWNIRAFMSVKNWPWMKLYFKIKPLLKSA
structure (smiles),measurement,setting,value
COc1ccc(C(=O)N2CCCc3cc(C4=NNC(=O)SC4C)ccc32)cc1OC (stereo not drawn) [EMD 57033],Direct binding to the motor domain,Dd myosin-5 motor domain,Direct binding of EMD 57033 to the motor domain was observed
same,Kd,Dd myosin-2 motor domain,23 µM
same,Plateau value of recovered filament velocity at stall load,β-cardiac myosin; [2],0.4 μm s^−1
same,Time to reach plateau of recovered motility,β-cardiac myosin; [2],more than 2 hr
same,α-actinin concentration required to stall filament movement,β-cardiac myosin; in presence of EMD 57033,≥ 12 µg/mL
same,Tm (melting temperature),[1],53.6 ± 1.9 °C
